For data set [1] the following is noted: cited from earlier work.
Data set [2] deals with T1, CAII (Homo sapiens, UniProt P00918). As to the kind of experiment: CAII esterase inhibition assay with 4-nitrophenyl acetate (pNPA) as colorimetric substrate. The settings on record: at physiologically relevant concentrations.
For data set [3], the system named is mouse hearts. Briefly: Oxygen consumption by Langendorff-perfused mouse hearts. The settings on record: 1 mM inhibitor, ex vivo Langendorff perfusion, C57BL6 mouse hearts, O2 in minus O2 out vs control solution. On the procedure: To test the effects of carbonic anhydrase inhibitors on oxygen consumption, Langendorff perfusion experiments were conducted using mouse hearts. Hearts were isolated from ˜12-week-old C57BL6 male mice and perfused ex vivo in Langendorff mode (retrograde perfusion via the aorta) with perfusate containing Krebs-Henseleit electrolytes with 2 mM acetate. The perfusate was constantly oxygenated with an oxygenator. […] The inhibitor solution was oxygenated by bubbling with 95% O2/5% CO2 mixed gas prior to adding.
Dissolved oxygen concentration was measured in the perfusate, or in the carbonic anhydrase inhibitor solution, using an Oxygraph+ system. […] In each figure, “O2 in” refers to the oxygen concentration in the perfusate prior to entering the heart or in the carbonic anhydrase inhibitor solution, and “O2 out” refers to the oxygen concentration in the perfusate after it passes through the heart.
Oxygen consumption was measured as the difference between the O2 in measurements and the O2 out measurements, and results are shown in FIG. 32.

Data set [4] deals with T1, CAII. The settings on record: CAII binding; cited from earlier work.

Each structure is given as a SMILES string. Entries after “also recorded” stand apart in the source; their conditions may differ.

Take `CC(=O)Oc1ccccc1C(=O)O` [Aspirin, Acetylsalicylic acid]: in data set [1], the half-life in blood is about 15 min. As for `O=C(O)c1ccccc1O` [SA, salicylic acid], in data set [2], the “inhibition of CAII” value is “completely inhibited CAII”. Turning to `CC(=O)Nc1nnc(S(N)(=O)=O)s1` [acetazolamide], in data set [3], the “oxygen consumption by the heart” value is listed as “increase in oxygen consumption; also recorded: increased oxygen consumption”. For `[Cu]` [copper], in data set [4], the “specificity toward copper over zinc” value was 50 fold. `CCN[C@H]1C[C@H](C)S(=O)(=O)c2sc(S(N)(=O)=O)cc21` [dorzolamide]: the “oxygen consumption by the heart” value in data set [3] is recorded as “increase in oxygen consumption; also recorded: increased oxygen consumption”.

The record behind these values is patent US20230081321A1, “CARBONIC ANHYDRASE II COMPOSITIONS AND METHODS OF USE THEREOF” (University of Florida Research Foundation, Incorporated, priority 2020, published 2023).
